Data taken from US20100120763A1, “IMIDAZO[5,1-C][1,2,4]BENZOTRIAZINE DERIVATIVES AS INHIBITORS OF PHOSPHODIESTERASES” (priority 2008, published 2010).

Experiments:
PDE10A = molecular target: T1, PDE10A (Homo sapiens, UniProt Q9Y233); experiment: Inhibition of recombinant PDE10A (baculovirus/SF21 system), [3H]-cAMP SPA; format: biochemical; conditions: recombinant PDE10A1, cytosolic; 0.1 μM [3H]-cAMP, 37° C., 30 minutes; read-out: PDE10A IC50
T1 construct: made in house; host or cells: SF21 insect cells (baculovirus)

PDE2A = molecular target: T2, PDE2A (Homo sapiens, UniProt O00408); experiment: Inhibition of recombinant PDE2A (expressed in baculovirus/SF21-cells), [3H]-cAMP SPA; format: biochemical
T2 construct: made in house; host or cells: SF21 insect cells (baculovirus)
How it was run: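 Membrane fraction of baculovirus/SF21-expressed PDE2A was incubated 30 min at 37° C in Tris-HCl/MgCl2 pH 7.4 with 0.5 μM [3H]-cAMP and 1000 nM cGMP as activator. Product was detected by SPA scintillation. IC50 used a Hill-plot 2-parameter model.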

T2 sequence (O00408 whole entry): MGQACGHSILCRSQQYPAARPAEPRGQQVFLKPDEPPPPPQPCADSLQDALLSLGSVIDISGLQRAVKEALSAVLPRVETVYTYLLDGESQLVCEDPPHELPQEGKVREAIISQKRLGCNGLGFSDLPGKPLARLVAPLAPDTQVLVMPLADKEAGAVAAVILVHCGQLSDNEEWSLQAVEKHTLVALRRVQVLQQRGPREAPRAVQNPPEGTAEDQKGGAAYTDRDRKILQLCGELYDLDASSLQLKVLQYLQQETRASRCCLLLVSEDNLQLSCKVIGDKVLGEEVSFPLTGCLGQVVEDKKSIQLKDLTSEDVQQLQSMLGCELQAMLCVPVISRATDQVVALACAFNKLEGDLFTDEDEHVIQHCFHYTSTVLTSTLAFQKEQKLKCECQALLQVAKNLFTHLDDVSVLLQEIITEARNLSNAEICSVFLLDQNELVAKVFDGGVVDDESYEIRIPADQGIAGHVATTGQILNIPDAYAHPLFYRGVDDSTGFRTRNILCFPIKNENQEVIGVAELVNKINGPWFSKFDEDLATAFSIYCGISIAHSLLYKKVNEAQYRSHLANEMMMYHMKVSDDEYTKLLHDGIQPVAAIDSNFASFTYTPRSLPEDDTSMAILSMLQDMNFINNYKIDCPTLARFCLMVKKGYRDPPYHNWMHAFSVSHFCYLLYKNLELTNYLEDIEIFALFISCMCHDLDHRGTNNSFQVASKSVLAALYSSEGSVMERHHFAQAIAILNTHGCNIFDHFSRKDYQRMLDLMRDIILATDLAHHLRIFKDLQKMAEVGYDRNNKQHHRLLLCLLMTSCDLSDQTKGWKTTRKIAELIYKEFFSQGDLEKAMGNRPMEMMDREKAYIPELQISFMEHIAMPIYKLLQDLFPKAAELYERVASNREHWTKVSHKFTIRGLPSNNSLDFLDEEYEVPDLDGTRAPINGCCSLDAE
T1 sequence (Q9Y233 1-779 isoform Q9Y233-1): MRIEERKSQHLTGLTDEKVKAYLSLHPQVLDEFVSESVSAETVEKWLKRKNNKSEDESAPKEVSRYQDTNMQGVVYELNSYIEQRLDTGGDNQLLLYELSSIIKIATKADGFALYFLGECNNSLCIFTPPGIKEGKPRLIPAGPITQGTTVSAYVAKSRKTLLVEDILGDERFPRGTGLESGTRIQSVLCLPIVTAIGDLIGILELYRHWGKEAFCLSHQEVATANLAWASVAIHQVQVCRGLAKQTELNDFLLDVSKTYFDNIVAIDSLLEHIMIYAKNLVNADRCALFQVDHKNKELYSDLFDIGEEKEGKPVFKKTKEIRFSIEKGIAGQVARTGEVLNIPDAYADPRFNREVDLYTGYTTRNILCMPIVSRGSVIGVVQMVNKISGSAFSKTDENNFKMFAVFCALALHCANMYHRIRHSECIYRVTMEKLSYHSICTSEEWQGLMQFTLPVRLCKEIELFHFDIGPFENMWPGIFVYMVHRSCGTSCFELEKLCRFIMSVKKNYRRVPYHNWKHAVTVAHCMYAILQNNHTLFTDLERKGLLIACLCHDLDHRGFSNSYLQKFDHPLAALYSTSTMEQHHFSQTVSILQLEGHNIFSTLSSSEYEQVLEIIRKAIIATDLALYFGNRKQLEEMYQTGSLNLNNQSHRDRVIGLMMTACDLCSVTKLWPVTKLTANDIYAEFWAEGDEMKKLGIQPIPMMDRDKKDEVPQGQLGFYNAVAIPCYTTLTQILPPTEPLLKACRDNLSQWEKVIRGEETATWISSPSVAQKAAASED

Compound | IC50 (PDE10A) | IC50 (PDE2A) | melting point
CCCCOc1ccc(F)c(-c2nc(C)c3nnc4ccc(F)cc4n23)c1 [Example 22, 1-(5-butoxy-2-fluorophenyl)-8-fluoro-3-methylbenzo[e]imidazo[5,1-c][1,2,4]triazine] | > 500 nM | 37.7 nM | 148 to 151 °C
COc1ccc2c(c1)nnc1c(C)ncn12 [Example 35, 7-methoxy-3-methylbenzo[e]imidazo[5,1-c][1,2,4]triazine] | > 5000 nM | > 5000 nM | 212 to 215 °C
Cc1nc(-c2ccnn2C)n2c1nnc1ccc(Cl)cc12 [Example 40, 8-chloro-3-methyl-1-(1-methyl-1H-pyrazol-5-yl)benzo[e]imidazo[5,1-c][1,2,4]triazine] | 3940 nM | 1410 nM | 230 to 231 °C
Cc1nc(-c2ccccc2C(N)=O)n2c1nnc1ccc(Cl)cc12 [Example 41, 2-(8-chloro-3-methylbenzo[e]imidazo[5,1-c][1,2,4]triazin-1-yl)benzamide] | 3120 nM | > 1000 nM | 249 to 251 °C
Cc1ncn2c1nnc1ccc(Cl)cc12 [Example 42, 8-chloro-3-methylbenzo[e]imidazo[5,1-c][1,2,4]triazine] | > 10000 nM | > 10000 nM | 210 °C
COc1cc2nnc3c(C)nc(-c4ccccn4)n3c2cc1OC [Example 50, 7,8-dimethoxy-3-methyl-1-(pyridin-2-yl)benzo[e]imidazo[5,1-c][1,2,4]triazine] | 71.2 nM | 2190 nM | 199 to 202 °C
Cc1nc(-c2ccccc2Cl)n2c1nnc1ccc(-c3ccccc3Cl)cc12 [Example 172, 1,8-Bis-(2-chloro-phenyl)-3-methyl-imidazo[5,1-c][1,2,4]benzotriazine] | 6.55 nM | 1.28 nM | 172 to 175 °C
Cc1nc(-c2cccc(Cl)c2Cl)n2c1nnc1ccc(-c3cccc(Cl)c3Cl)cc12 [Example 173, 1,8-Bis-(2,3-dichloro-phenyl)-3-methyl-imidazo[5,1-c][1,2,4]benzotriazine] | 57.6 nM | 61.5 nM | 207 to 210 °C
CCCOc1ccc(F)c(-c2ccc3nnc4c(C)nc(-c5cc(OCCC)ccc5F)n4c3c2)c1 [Example 174, 1,8-Bis-(2-fluoro-5-propoxy-phenyl)-3-methyl-imidazo[5,1-c][1,2,4]benzotriazine] | 41.1 nM | 3.55 nM | 134 to 136 °C
CCCCOc1ccc(F)c(-c2ccc3nnc4c(C)nc(-c5cc(OCCCC)ccc5F)n4c3c2)c1 [Example 175, 1,8-Bis-(5-butoxy-2-fluoro-phenyl)-3-methyl-imidazo[5,1-c][1,2,4]benzotriazine] | 21.6 nM | 0.77 nM | 94 to 95 °C
Cc1nc(-c2cc(C(F)(F)F)ccc2F)n2c1nnc1ccc(-c3cc(C(F)(F)F)ccc3F)cc12 [Example 176, 1,8-Bis-(2-fluoro-5-trifluoromethyl-phenyl)-3-methyl-imidazo[5,1-c][1,2,4]benzotriazine] | 117 nM | 137 nM | 155 to 158 °C
Cc1nc(-c2ccccc2Cl)n2c1nnc1ccc(N3CCOCC3)cc12 [Example 184, 1-(2-Chloro-phenyl)-3-methyl-8-morpholin-4-yl-imidazo[5,1-c][1,2,4]benzotriazine] | 9.77 nM | 6.39 nM | 242 to 245 °C
Cc1nc(-c2ccccc2Cl)n2c1nnc1ccc(-n3ccnc3)cc12 [Example 185, 1-(2-Chloro-phenyl)-8-imidazol-1-yl-3-methyl-imidazo[5,1-c][1,2,4]benzotriazine] | 8.97 nM | 7.14 nM | 95 to 98 °C
Cc1nc(-c2ccccc2Cl)n2c1nnc1ccc(N3CCN(C)CC3)cc12 [Example 186, 1-(2-Chloro-phenyl)-3-methyl-8-(4-methyl-piperazin-1-yl)-imidazo[5,1-c][1,2,4]benzotriazine] | 9.02 nM | 7.49 nM | 230 °C
Cc1nc(-c2ccccc2Cl)n2c1nnc1ccc(OCc3ccc(F)cc3)cc12 [Example 187, 1-(2-Chloro-phenyl)-8-(4-fluoro-benzyloxy)-3-methyl-imidazo[5,1-c][1,2,4]benzotriazine] | 24.6 nM | 9.72 nM | 174 to 177 °C

Results, then the molecule that gave them:

IC50 (PDE10A) | IC50 (PDE2A) | melting point | Compound
2030 nM | 1360 nM | 141 to 144 °C | Cc1nc(-c2cnccc2Cl)n2c1nnc1ccc(F)cc12 [Example 19, 1-(4-chloropyridin-3-yl)-8-fluoro-3-methylbenzo[e]imidazo[5,1-c][1,2,4]triazine]
2290 nM | 473 nM | 148 to 150.5 °C | Cc1nc(-c2cc(OC(C)C)ccc2F)n2c1nnc1ccc(F)cc12 [Example 20, 8-fluoro-1-(2-fluoro-5-isopropoxyphenyl)-3-methylbenzo[e]imidazo[5,1-c][1,2,4]triazine]
> 1000 nM | 912 nM | 176 to 179 °C | Cc1nc(-c2cc(C(F)(F)F)ccc2F)n2c1nnc1ccc(F)cc12 [Example 21, 8-fluoro-1-(2-fluoro-5-(trifluoromethyl)phenyl)-3-methylbenzo[e]imidazo[5,1-c][1,2,4]triazine]
1540 nM | 59.1 nM | 153 to 155 °C | CCCOc1ccc(F)c(-c2nc(C)c3nnc4ccc(F)cc4n23)c1 [Example 23, 8-fluoro-1-(2-fluoro-5-propoxyphenyl)-3-methylbenzo[e]imidazo[5,1-c][1,2,4]triazine]
> 500 nM | 240 nM | 189 to 191 °C | CCOc1ccc(F)c(-c2nc(C)c3nnc4ccc(F)cc4n23)c1 [Example 24, 1-(5-ethoxy-2-fluorophenyl)-8-fluoro-3-methylbenzo[e]imidazo[5,1-c][1,2,4]triazine]
1490 nM | 341 nM | 169 to 172 °C | Cc1ncccc1-c1nc(C)c2nnc3cc(F)ccc3n12 [Example 25, 7-fluoro-3-methyl-1-(2-methylpyridin-3-yl)benzo[e]imidazo[5,1-c][1,2,4]triazine]
635 nM | 500 nM | 249 to 251 °C | COc1ccccc1-c1nc(C)c2nnc3cc(F)ccc3n12 [Example 26, 7-fluoro-1-(2-methoxyphenyl)-3-methylbenzo[e]imidazo[5,1-c][1,2,4]triazine]
911 nM | 298 nM | 181 to 184 °C | Cc1cc(F)ccc1-c1nc(C)c2nnc3cc(F)ccc3n12 [Example 27, 7-fluoro-1-(4-fluoro-2-methylphenyl)-3-methylbenzo[e]imidazo[5,1-c][1,2,4]triazine]
359 nM | 122 nM | 149 to 152 °C | Cc1ccccc1-c1nc(C)c2nnc3cc(F)ccc3n12 [Example 28, 7-fluoro-3-methyl-1-o-tolylbenzo[e]imidazo[5,1-c][1,2,4]triazine]
425 nM | 35.3 nM | 158 to 161.5 °C | COc1ccc(Cl)c(-c2nc(C)c3nnc4cc(F)ccc4n23)c1 [Example 29, 1-(2-chloro-5-methoxyphenyl)-7-fluoro-3-methylbenzo[e]imidazo[5,1-c][1,2,4]triazine]
> 1000 nM | 1790 nM | 205 to 206 °C | Cc1nc(-c2cc(C(F)(F)F)ccc2F)n2c1nnc1cc(F)ccc12 [Example 30, 7-fluoro-1-(2-fluoro-5-(trifluoromethyl)phenyl)-3-methylbenzo[e]imidazo[5,1-c][1,2,4]triazine]
5340 nM | 551 nM | 133 to 136 °C | Cc1nc(-c2cc(OC(C)C)ccc2F)n2c1nnc1cc(F)ccc12 [Example 31, 7-fluoro-1-(2-fluoro-5-isopropoxyphenyl)-3-methylbenzo[e]imidazo[5,1-c][1,2,4]triazine]
75.2 nM | 26.7 nM | 163 to 165 °C | COc1ccc2c(c1)nnc1c(C)nc(-c3ccccc3Cl)n12 [Example 34, 1-(2-chlorophenyl)-7-methoxy-3-methylbenzo[e]imidazo[5,1-c][1,2,4]triazine]
351 nM | 73.4 nM | 202 to 205 °C | COc1ccc2c(c1)nnc1c(C)nc(-c3cccnc3C)n12 [Example 36, 7-methoxy-3-methyl-1(2-methylpyridin-3-yl)benzo[e]imidazo[5,1-c][1,2,4]triazine]
77.2 nM | 5.31 nM | 188 to 190 °C | Cc1nc(-c2cc(Cl)ccc2Cl)n2c1nnc1ccc(Cl)cc12 [Example 37, 8-chloro-1-(2,5-dichlorophenyl)-3-methylbenzo[e]imidazo[5,1-c][1,2,4]triazine]
207 nM | 41.4 nM | 235 to 236 °C | Cc1ncccc1-c1nc(C)c2nnc3ccc(Cl)cc3n12 [Example 38, 8-chloro-3-methyl-1-(2-methylpyridin-3-yl)benzo[e]imidazo[5,1-c][1,2,4]triazine]
> 500 nM | 233 nM | 174 to 177 °C | Cc1nc(-c2cc(OC(C)C)ccc2F)n2c1nnc1ccc(Cl)cc12 [Example 43, 8-chloro-1-(2-fluoro-5-isopropoxyphenyl)-3-methylbenzo[e]imidazo[5,1-c][1,2,4]triazine]
1550 nM | 121 nM | 204 to 207 °C | COc1ccc2nnc3c(C)nc(-c4cc(OC(C)C)ccc4F)n3c2c1 [Example 44, 1-(2-fluoro-5-isopropoxyphenyl)-8-methoxy-3-methylbenzo[e]imidazo[5,1-c][1,2,4]triazine]
